In data set [1] the test system is Macrophage cell line. Put plainly: Cytotoxicity against human PBMC-differentiated macrophages treated for 24 hrs followed by compound washout and measured after 48 hrs by MTT assay. Type of data set: cell-based. A general note: Formazan colour is commonly taken as a measure of viable cells.
A further data set concerns Streptococcus pyogenes. Nature of the data set: Potentiation of methicillin-induced antibacterial activity against Streptococcus pyogenes ATCC 14289 assessed as minimum modulatory concentration up to 32 uM measured after 16 hrs in presence of MIC/4 methicillin. Type of data set: functional. The note with it: ATCC 14289, 16 h, read-out: MEC.
Data set [2] relates to Escherichia coli. Nature of the data set: Potentiation of ciprofloxacin-induced antibacterial activity against Escherichia coli ATCC 43894 assessed as minimum modulatory concentration up to 32 uM measured after 16 hrs in presence of MIC/4 ciprofloxacin. The data set is classed as functional. The conditions noted are these: ATCC 43894, 16 h, read-out: MEC.
Data set [3] concerns Macrophage cell line. Put plainly: Antiinflammatory activity in human PBMC-differentiated macrophages assessed as inhibition of LPS-induced IL-1beta production at 0.01 to 10 uM measured after 24 hrs by ELISA. Type of data set: functional, cell-based. On the technique in general: In an ELISA, binding on a coated surface is turned into a signal by an enzyme label.
The subject of data set [4] is Macrophage cell line. Nature of the data set: Antiinflammatory activity in human PBMC-differentiated macrophages assessed as inhibition of LPS-induced TNFalpha production at 0.01 to 10 uM measured after 24 hrs by ELISA. Type of data set: functional, cell-based.
The test system of data set [5] is Enterococcus faecium. Put plainly: Potentiation of ciprofloxacin-induced antibacterial activity against Enterococcus faecium ATCC 700221 assessed as minimum modulatory concentration up to 32 uM measured after 16 hrs in presence of MIC/4 ciprofloxacin. The data set is classed as functional. The note with it: ATCC 700221, 16 h, read-out: MEC.
The subject of data set [6] is Macrophage cell line. Put plainly: Induction of IL-8 production in human PBMC-differentiated macrophages after 24 hrs by ELISA. Type of data set: cell-based.
The test system of data set [7] is Enterococcus faecium. Put plainly: Potentiation of methicillin-induced antibacterial activity against Enterococcus faecium ATCC 700221 assessed as minimum modulatory concentration up to 32 uM measured after 16 hrs in presence of MIC/4 methicillin. The note with it: ATCC 700221, 16 h, read-out: MEC. The data set is classed as functional.
Data set [8] relates to Macrophage cell line. Nature of the data set: Induction of IL-1beta production in human PBMC-differentiated macrophages after 24 hrs by ELISA. Type of data set: cell-based.
Data set [9] deals with Pseudomonas aeruginosa. Put plainly: Potentiation of ciprofloxacin-induced antibacterial activity against Pseudomonas aeruginosa ATCC BAA-2108 assessed as minimum modulatory concentration up to 32 uM measured after 16 hrs in presence of MIC/4 ciprofloxacin. The note with it: ATCC BAA-2108, 16 h, read-out: MEC. The data set is classed as functional.
Data set [10] relates to Pseudomonas aeruginosa. Nature of the data set: Toxicity in Pseudomonas aeruginosa ATCC BAA-2108 up to 32 uM measured after 16 hrs. The data set is classed as organism-based. The conditions noted are these: in vitro.
The subject of data set [11] is Escherichia coli. Nature of the data set: Potentiation of geneticin-induced antibacterial activity against Escherichia coli ATCC 43894 assessed as minimum modulatory concentration up to 32 uM measured after 16 hrs in presence of MIC/4 geneticin. Type of data set: functional. The conditions noted are these: ATCC 43894, 16 h, read-out: MEC.
In data set [12] the test system is Macrophage cell line. Put plainly: Antiinflammatory activity in human PBMC-differentiated macrophages assessed as lowest concentration required to show at least 25% inhibition of LPS-induced TNFalpha production measured after 24 hrs by ELISA. Type of data set: functional.
Data set [13] concerns Macrophage cell line. Put plainly: Antiinflammatory activity in human PBMC-differentiated macrophages assessed as lowest concentration required to show at least 25% inhibition of LPS-induced IL-8 production measured after 24 hrs by ELISA. The data set is classed as functional.
The subject of data set [14] is Macrophage cell line. Put plainly: Antiinflammatory activity in human PBMC-differentiated macrophages assessed as lowest concentration required to show at least 25% inhibition of LPS-induced IL-1beta production measured after 24 hrs by ELISA. Type of data set: functional.

Active and inactive are the calls of the source. The rule behind the calls is not given here. A value given as a limit tells only on which side of the number the result lay.

The IC50 is the concentration that inhibits the measured activity by half. As to `Cc1cc(C(=O)O)c(O)c(Cc2ccccc2)n1`, the IC50 with Macrophage cell line [1] was over 100 µM. Also, the minimal effective concentration with Streptococcus pyogenes, in the data set with Escherichia coli [2], in the data set on Enterococcus faecium [5], with Enterococcus faecium [7], in the data set with Pseudomonas aeruginosa [9] and with Escherichia coli [11] was over 32 µM throughout. Further, the inhibition result in the data set with Macrophage cell line [3] and in the data set with Macrophage cell line [4] was “inactive” each time. Further, the Activity entry in the data set on Macrophage cell line [6], in the data set on Macrophage cell line [8] and in the data set on Pseudomonas aeruginosa [10] was “Non-Toxic” throughout.
`O=C(O)c1cc(-c2ccccc2)ncc1O`: the IC50 in the data set on Macrophage cell line [1] worked out at 84.5 µM. In addition, the minimal effective concentration with Streptococcus pyogenes is 16 µM; in the data set with Escherichia coli [2], over 32 µM; in the data set on Enterococcus faecium [5], over 32 µM; with Enterococcus faecium [7] it was over 32 µM; in the data set on Pseudomonas aeruginosa [9], over 32 µM; in the data set on Escherichia coli [11], over 32 µM. Further, the inhibition result in the data set with Macrophage cell line [3] and in the data set with Macrophage cell line [4] was “inactive” in each case. The Activity result with Macrophage cell line [6], with Macrophage cell line [8] and in the data set on Pseudomonas aeruginosa [10] was “Non-Toxic” each time.
Compound `O=C(O)c1ccnc(-c2ccccc2)c1O` registered an IC50 in the data set on Macrophage cell line [1] of over 100 µM. Further, the minimal effective concentration in the data set with Streptococcus pyogenes is 0.5 µM; in the data set on Escherichia coli [2], over 32 µM; in the data set on Enterococcus faecium [5], over 32 µM; in the data set with Enterococcus faecium [7] it was 1 µM; with Pseudomonas aeruginosa [9] it was 4 µM; in the data set with Escherichia coli [11], over 32 µM. Besides, the Activity entry with Macrophage cell line [6] was “Non-Toxic”; in the data set on Macrophage cell line [12], 10 µM; in the data set on Macrophage cell line [8], “Non-Toxic”; with Macrophage cell line [13] it was 10 µM; with Macrophage cell line [14], 10 µM; with Pseudomonas aeruginosa [10] it was “Non-Toxic”.
Regarding `O=C(O)c1ccnc(Cc2ccccc2)c1O`, the IC50 with Macrophage cell line [1] was over 100 µM. In addition, the minimal effective concentration with Streptococcus pyogenes, in the data set with Escherichia coli [2], in the data set with Enterococcus faecium [5], in the data set on Enterococcus faecium [7], with Pseudomonas aeruginosa [9] and in the data set with Escherichia coli [11] was over 32 µM throughout. Further, the inhibition entry with Macrophage cell line [3] and in the data set on Macrophage cell line [4] was “inactive” throughout. Besides, the Activity entry in the data set with Macrophage cell line [6], with Macrophage cell line [8] and with Pseudomonas aeruginosa [10] was “Non-Toxic” throughout.
Compound `COc1cccc(-c2cc(C(=O)O)c(O)cn2)c1` came in with an IC50 with Macrophage cell line [1] of 88.6 µM. In addition, the minimal effective concentration in the data set on Streptococcus pyogenes is over 32 µM; in the data set on Escherichia coli [2], over 32 µM; with Enterococcus faecium [5], over 32 µM; in the data set on Enterococcus faecium [7], 16 µM; in the data set with Pseudomonas aeruginosa [9] it was over 32 µM; with Escherichia coli [11] it was over 32 µM. Further, the inhibition result in the data set with Macrophage cell line [3] and in the data set on Macrophage cell line [4] was “inactive” each time. Moreover, the Activity entry in the data set on Macrophage cell line [6], in the data set on Macrophage cell line [8] and with Pseudomonas aeruginosa [10] was “Non-Toxic” in each case.
`C[n+]1ccc(C(=O)[O-])c(O)c1Cc1ccccc1`: the IC50 in the data set on Macrophage cell line [1] is over 100 µM. Also, the minimal effective concentration in the data set on Streptococcus pyogenes, in the data set with Escherichia coli [2], in the data set on Enterococcus faecium [5], with Enterococcus faecium [7], in the data set on Pseudomonas aeruginosa [9] and in the data set with Escherichia coli [11] was over 32 µM in each case. The inhibition result in the data set on Macrophage cell line [3] and in the data set on Macrophage cell line [4] was “inactive” each time. Moreover, the Activity result with Macrophage cell line [6], in the data set with Macrophage cell line [8] and with Pseudomonas aeruginosa [10] was “Non-Toxic” each time.
`O=C(O)c1cc(O)cnc1-c1ccccc1` displayed an IC50 with Macrophage cell line [1] of 87.9 µM. Also, the minimal effective concentration in the data set with Streptococcus pyogenes was 1 µM; with Escherichia coli [2], over 32 µM; with Enterococcus faecium [5], over 32 µM; in the data set on Enterococcus faecium [7], 2 µM; with Pseudomonas aeruginosa [9], 8 µM; in the data set with Escherichia coli [11] it was over 32 µM. Further, the Activity entry was “Non-Toxic” in the data set on Macrophage cell line [6]; 10 µM in the data set on Macrophage cell line [12]; “Non-Toxic” with Macrophage cell line [8]; 10 µM in the data set on Macrophage cell line [13]; 10 µM in the data set on Macrophage cell line [14]; “Non-Toxic” in the data set on Pseudomonas aeruginosa [10].
In turn, `COc1cccc(-c2cc(C(=O)[O-])c(O)c[n+]2C)c1` gave an IC50 in the data set on Macrophage cell line [1] of 96 µM. Besides, the minimal effective concentration in the data set with Streptococcus pyogenes, in the data set with Escherichia coli [2], in the data set on Enterococcus faecium [5], in the data set with Enterococcus faecium [7], with Pseudomonas aeruginosa [9] and with Escherichia coli [11] was over 32 µM throughout. The inhibition result in the data set on Macrophage cell line [3] and with Macrophage cell line [4] was “inactive” each time. Moreover, the Activity result with Macrophage cell line [6], in the data set on Macrophage cell line [8] and in the data set on Pseudomonas aeruginosa [10] was “Non-Toxic” in each case.
`Cc1nc(-c2ccccc2)cc(C(=O)O)c1O` returned an IC50 with Macrophage cell line [1] of 90.8 µM. The minimal effective concentration in the data set with Streptococcus pyogenes, in the data set with Escherichia coli [2], with Enterococcus faecium [5], in the data set with Enterococcus faecium [7], in the data set with Pseudomonas aeruginosa [9] and in the data set on Escherichia coli [11] was over 32 µM throughout. Also, the inhibition entry in the data set on Macrophage cell line [3] and in the data set on Macrophage cell line [4] was “inactive” each time. Besides, the Activity result with Macrophage cell line [6], with Macrophage cell line [8] and with Pseudomonas aeruginosa [10] was “Non-Toxic” in each case.
Consider `C[n+]1cc(O)c(C(=O)[O-])cc1-c1ccccc1`, for which the IC50 with Macrophage cell line [1] was 91.4 µM. Also, the minimal effective concentration with Streptococcus pyogenes, in the data set on Escherichia coli [2], in the data set on Enterococcus faecium [5], with Enterococcus faecium [7], in the data set with Pseudomonas aeruginosa [9] and in the data set with Escherichia coli [11] was over 32 µM throughout. The inhibition entry in the data set on Macrophage cell line [3] and with Macrophage cell line [4] was “inactive” in each case. The Activity result in the data set with Macrophage cell line [6], with Macrophage cell line [8] and in the data set with Pseudomonas aeruginosa [10] was “Non-Toxic” throughout.
Regarding `Cc1nc(-c2ccccc2)c(O)cc1C(=O)O`, the midpoint of inhibition with Macrophage cell line [1], the IC50, lay at 97.4 µM. For the same compound, the minimal effective concentration was 4 µM in the data set on Streptococcus pyogenes; over 32 µM with Escherichia coli [2]; over 32 µM in the data set on Enterococcus faecium [5]; 0.5 µM with Enterococcus faecium [7]; 4 µM in the data set on Pseudomonas aeruginosa [9]; over 32 µM in the data set on Escherichia coli [11]. For the same compound, the Activity result in the data set on Macrophage cell line [6] is “Non-Toxic”; with Macrophage cell line [12] it was 10 µM; in the data set with Macrophage cell line [8], “Non-Toxic”; with Macrophage cell line [14] it was 10 µM; in the data set with Pseudomonas aeruginosa [10], “Non-Toxic”.
In the data set with Macrophage cell line [1], `O=C(O)c1cnc(-c2ccccc2)c(O)c1` registered an IC50 of over 100 µM. The minimal effective concentration was 1 µM in the data set with Streptococcus pyogenes; over 32 µM with Escherichia coli [2]; over 32 µM with Enterococcus faecium [5]; 0.5 µM in the data set on Enterococcus faecium [7]; 4 µM in the data set on Pseudomonas aeruginosa [9]; over 32 µM with Escherichia coli [11]. The inhibition result with Macrophage cell line [3] and in the data set on Macrophage cell line [4] was “inactive” in each case. Also, the Activity entry with Macrophage cell line [6], with Macrophage cell line [8] and with Pseudomonas aeruginosa [10] was “Non-Toxic” in each case.

(Values after ChEMBL document CHEMBL4257522, “Synthesis and preliminary anti-inflammatory and anti-bacterial evaluation of some diflunisal aza-analogs” (Medchemcomm, 2018).)
